In patent EP0052437A1, “Antibacterial compounds, processes for their preparation and compositions containing them” (BEECHAM GROUP PLC, priority 1980, dated 1982):
In brackets after ≈: the same amount, converted by molar mass.

What was measured:
Format in all cases: cell-based
[1] = system: M. suipneumoniae ATCC 25095; experiment: Anti-mycoplasmal in vitro MIC; settings: Mesomycoplasma hyopneumoniae, ATCC25095, 144 h, Friis broth solidified with 0.9% agarose, 6 days incubation at 37°C
[2] = system: M. suipneumoniae PW/C/210; experiment: Anti-mycoplasmal in vitro MIC; settings: Mesomycoplasma hyopneumoniae, 144 h, Friis broth solidified with 0.9% agarose, 6 days incubation at 37°C
[3] = system: Haemophilus influenzae Q1; experiment: Human bacteria MIC; settings: nutrient agar with 5% chocolated horse blood, 18 hours at 37°C
Description: (§1) The values were determined by serial dilutions in nutrient agar with 5% chocolated horse blood after incubations for 18 hours at 37 °C.

K. aerogenes A = experiment: Human bacteria MIC; settings: Klebsiella aerogenes, nutrient agar with 5% chocolated horse blood, 18 hours at 37°C
Description: as §1

Staph. aureus W2827 = experiment: Human bacteria MIC; settings: Staphylococcus aureus, nutrient agar with 5% chocolated horse blood, 18 hours at 37°C
Description: as §1

Strep. 641848-C = experiment: Human bacteria MIC; settings: nutrient agar with 5% chocolated horse blood, 18 hours at 37°C
Description: as §1

Strep. faecalis I = experiment: Human bacteria MIC; settings: Enterococcus faecalis, nutrient agar with 5% chocolated horse blood, 18 hours at 37°C
Description: as §1

Sarcina lutea 8340 = experiment: Human bacteria MIC; settings: Micrococcus luteus, nutrient agar with 5% chocolated horse blood, 18 hours at 37°C
Description: as §1

Strep. pneumoniae CN33 = experiment: Human bacteria MIC; settings: Streptococcus pneumoniae, nutrient agar with 5% chocolated horse blood, 18 hours at 37°C
Description: as §1

[4] = system: Neisseria catarrhalis 1502; experiment: Human bacteria MIC; settings: nutrient agar with 5% chocolated horse blood, 18 hours at 37°C
Description: as §1

[5] = system: Ps. aeruginosa NCTC 10662; experiment: Human bacteria MIC; settings: Pseudomonas aeruginosa, NCTC10662, nutrient agar with 5% chocolated horse blood, 18 hours at 37°C
Description: as §1

Staph. aureus Oxford = experiment: Human bacteria MIC; settings: Staphylococcus aureus, nutrient agar with 5% chocolated horse blood, 18 hours at 37°C
Description: as §1

[6] = system: Pasteurella multocida 1633; experiment: Human bacteria MIC; settings: nutrient agar with 5% chocolated horse blood, 18 hours at 37°C
Description: as §1

E. Coli NCTC 10418 = experiment: Human bacteria MIC; settings: Escherichia coli, NCTC10418, nutrient agar with 5% chocolated horse blood, 18 hours at 37°C
Description: as §1

Strep. 2788-B = experiment: Human bacteria MIC; settings: nutrient agar with 5% chocolated horse blood, 18 hours at 37°C
Description: as §1

[7] = system: Strep. pyogenes R80/421-A; experiment: Human bacteria MIC; settings: Streptococcus pyogenes, nutrient agar with 5% chocolated horse blood, 18 hours at 37°C
Description: as §1

Staph. aureus Russell = experiment: Human bacteria MIC; settings: Staphylococcus aureus, nutrient agar with 5% chocolated horse blood, 18 hours at 37°C
Description: as §1

[8] = system: Haemophilus influenzae Wy21; experiment: Human bacteria MIC; settings: nutrient agar with 5% chocolated horse blood, 18 hours at 37°C
Description: as §1

E. coli ESS = experiment: Human bacteria MIC; settings: Escherichia coli, nutrient agar with 5% chocolated horse blood, 18 hours at 37°C
Description: as §1

[9] = system: M. suipneumoniae J2206/183b; experiment: Anti-mycoplasmal in vitro MIC; settings: Mesomycoplasma hyopneumoniae, 144 h, Friis broth solidified with 0.9% agarose, 6 days incubation at 37°C
M. suipneumoniae TAM 6N = experiment: Anti-mycoplasmal in vitro MIC; settings: Mesomycoplasma hyopneumoniae, TAM6N, 144 h, Friis broth solidified with 0.9% agarose, 6 days incubation at 37°C
M. bovis NCTC 10131 = experiment: microbe, parasite or virus in culture; settings: NCTC10131, 144 h
[10] = system: Treponema hyodysenterial S77/10; experiment: Swine dysentery MIC (inhibition of β-haemolysis); settings: 72 h, Strain S77/10, horse blood agar, 37°C for 3 days, anaerobic, lowest concentration to inhibit β-haemolysis
Description: (§2) The activity of the compounds of Examples 2 and 3 against various strains of Treponema hyodysenterial, associated with swine dysentry, were determined.
(§3) MIC values (µg/ml) of the compounds were determined by incorporating the compounds in horse blood agar, inoculating (multi-point) with 0.001 ml of 3 day growth from base of blood slope (+ 1 ml foetal calf serum) and incubating at 37°C for 3 days under aneorobic conditions (Gas Pak 150). The MIC values were taken as the lowest concentrations to inhibit β-haemolysis.

[11] = system: Treponema hyodysenterial Navis; experiment: Swine dysentery MIC (inhibition of β-haemolysis); settings: 72 h, Strain Navis, horse blood agar, 37°C for 3 days, anaerobic, lowest concentration to inhibit β-haemolysis
Description: as §2, §3

[12] = system: Treponema hyodysenterial S77/2; experiment: Swine dysentery MIC (inhibition of β-haemolysis); settings: 72 h, Strain S77/2, horse blood agar, 37°C for 3 days, anaerobic, lowest concentration to inhibit β-haemolysis
Description: as §2, §3

[13] = system: Treponema hyodysenterial B10; experiment: Swine dysentery MIC (inhibition of β-haemolysis); settings: 72 h, Strain B10, horse blood agar, 37°C for 3 days, anaerobic, lowest concentration to inhibit β-haemolysis
Description: as §2, §3

[14] = system: Treponema hyodysenterial P23; experiment: Swine dysentery MIC (inhibition of β-haemolysis); settings: 72 h, Strain P23, horse blood agar, 37°C for 3 days, anaerobic, lowest concentration to inhibit β-haemolysis
Description: as §2, §3

[15] = system: Treponema hyodysenterial S73/2; experiment: Swine dysentery MIC (inhibition of β-haemolysis); settings: 72 h, Strain S73/2, horse blood agar, 37°C for 3 days, anaerobic, lowest concentration to inhibit β-haemolysis
Description: as §2, §3

[16] = system: Treponema hyodysenterial TH3; experiment: Swine dysentery MIC (inhibition of β-haemolysis); settings: 72 h, Strain TH3, horse blood agar, 37°C for 3 days, anaerobic, lowest concentration to inhibit β-haemolysis
Description: as §2, §3

SMILES | MIC [1] | MIC [2] | MIC [3] | MIC (K. aerogenes A) | MIC (Staph. aureus W2827) | MIC (Strep. 641848-C) | MIC (Strep. faecalis I) | MIC (Sarcina lutea 8340) | MIC (Strep. pneumoniae CN33) | MIC [4] | MIC [5] | MIC (Staph. aureus Oxford) | MIC [6] | MIC (E. Coli NCTC 10418) | MIC (Strep. 2788-B) | MIC (Staph. aureus Russell) | MIC (E. coli ESS) | MIC [9] | MIC (M. suipneumoniae TAM 6N) | MIC (M. bovis NCTC 10131) | further results
C/C(=C\C(=O)OCc1ccccc1C#N)CC1OCC(CC2OC2C(C)C(C)O)C(O)C1O (centres unmarked) [Example 1, o-Cyanobenzyl monate A] | 0.5 µg/mL (≈ 1.09 µM) | 0.5 µg/mL (≈ 1.09 µM) | 0.25 µg/mL (≈ 0.544 µM) | > 100 µg/mL | 2.5 µg/mL (≈ 5.44 µM) | 1 µg/mL (≈ 2.18 µM) | > 100 µg/mL | > 100 µg/mL | 1 µg/mL (≈ 2.18 µM) | 0.5 µg/mL (≈ 1.09 µM) | > 100 µg/mL | 1 µg/mL (≈ 2.18 µM) | 1 µg/mL (≈ 2.18 µM) | > 100 µg/mL | 5 µg/mL (≈ 10.9 µM) | 1 µg/mL (≈ 2.18 µM) | 1 µg/mL (≈ 2.18 µM) | 1 µg/mL (≈ 2.18 µM) | 2.5 µg/mL (≈ 5.44 µM) | – | MIC [7]: 0.5 µg/mL (≈ 1.09 µM); MIC [8]: 0.25 µg/mL (≈ 0.544 µM)
C/C(=C\C(=O)OCc1cccc(C#N)c1)CC1OCC(CC2OC2C(C)C(C)O)C(O)C1O (centres unmarked) [Example 2, m-Cyanobenzyl monate A] | 0.05 µg/mL (≈ 0.109 µM) | 0.05 µg/mL (≈ 0.109 µM) | 0.1 µg/mL (≈ 0.218 µM) | 100 µg/mL (≈ 218 µM) | 1 µg/mL (≈ 2.18 µM) | 1 µg/mL (≈ 2.18 µM) | 100 µg/mL (≈ 218 µM) | > 100 µg/mL | 0.5 µg/mL (≈ 1.09 µM) | 0.25 µg/mL (≈ 0.544 µM) | > 100 µg/mL | 1 µg/mL (≈ 2.18 µM) | 1 µg/mL (≈ 2.18 µM) | 50 µg/mL (≈ 109 µM) | – | 2.5 µg/mL (≈ 5.44 µM) | 0.5 µg/mL (≈ 1.09 µM) | 0.05 µg/mL (≈ 0.109 µM) | 0.1 µg/mL (≈ 0.218 µM) | ≤ 0.01 µg/mL | MIC [10]: 10 µg/mL (≈ 21.8 µM); MIC [11]: 10 µg/mL (≈ 21.8 µM); MIC [12]: 10 µg/mL (≈ 21.8 µM); MIC [13]: 10 µg/mL (≈ 21.8 µM); MIC [14]: 10 µg/mL (≈ 21.8 µM); MIC [8]: 0.1 µg/mL (≈ 0.218 µM)
C/C(=C\C(=O)OCc1ccc(C#N)cc1)CC1OCC(CC2OC2C(C)C(C)O)C(O)C1O (centres unmarked) [Example 3, p-Cyanobenzyl monate A] | 0.25 µg/mL (≈ 0.544 µM) | 0.1 µg/mL (≈ 0.218 µM) | 0.1 µg/mL (≈ 0.218 µM) | 50 µg/mL (≈ 109 µM) | 0.5 µg/mL (≈ 1.09 µM) | 0.25 µg/mL (≈ 0.544 µM) | 100 µg/mL (≈ 218 µM) | > 100 µg/mL | 0.25 µg/mL (≈ 0.544 µM) | 0.1 µg/mL (≈ 0.218 µM) | > 100 µg/mL | 0.25 µg/mL (≈ 0.544 µM) | 0.5 µg/mL (≈ 1.09 µM) | 50 µg/mL (≈ 109 µM) | 0.5 µg/mL (≈ 1.09 µM) | 0.5 µg/mL (≈ 1.09 µM) | 0.25 µg/mL (≈ 0.544 µM) | 0.25 µg/mL (≈ 0.544 µM) | 0.25 µg/mL (≈ 0.544 µM) | < 0.01 µg/mL | MIC [10]: 10 µg/mL (≈ 21.8 µM); MIC [11]: 10 µg/mL (≈ 21.8 µM); MIC [12]: 10 µg/mL (≈ 21.8 µM); MIC [15]: 5 µg/mL (≈ 10.9 µM); MIC [16]: 5 µg/mL (≈ 10.9 µM); MIC [13]: 20 µg/mL (≈ 43.5 µM); MIC [14]: 40 µg/mL (≈ 87 µM); MIC [7]: 0.1 µg/mL (≈ 0.218 µM)
C/C(=C\C(=O)OC(C)c1ccc(C#N)cc1)CC1OCC(CC2OC2C(C)C(C)O)C(O)C1O (centres unmarked) [Example 4, 1-(p-Cyanophenyl)ethyl monate A] | 1 µg/mL (≈ 2.11 µM) | 1 µg/mL (≈ 2.11 µM) | 0.5 µg/mL (≈ 1.06 µM) | > 100 µg/mL | 5 µg/mL (≈ 10.6 µM) | 2.5 µg/mL (≈ 5.28 µM) | > 100 µg/mL | > 100 µg/mL | 2.5 µg/mL (≈ 5.28 µM) | 0.5 µg/mL (≈ 1.06 µM) | > 100 µg/mL | 2.5 µg/mL (≈ 5.28 µM) | 10 µg/mL (≈ 21.1 µM) | > 100 µg/mL | 5 µg/mL (≈ 10.6 µM) | 5 µg/mL (≈ 10.6 µM) | 2.5 µg/mL (≈ 5.28 µM) | 2.5 µg/mL (≈ 5.28 µM) | 2.5 µg/mL (≈ 5.28 µM) | ≤ 0.01 µg/mL | MIC [8]: 0.5 µg/mL (≈ 1.06 µM)
C/C(=C\C(=O)OCc1cccc(C#N)c1)CC1OCC(C/C=C/C(C)C(C)O)C(O)C1O (centres unmarked) [Example 5, m-Cyanobenzyl monate C] | 0.5 µg/mL (≈ 1.13 µM) | 0.5 µg/mL (≈ 1.13 µM) | – | > 100 µg/mL | 2.5 µg/mL (≈ 5.64 µM) | 2.5 µg/mL (≈ 5.64 µM) | > 100 µg/mL | > 100 µg/mL | – | 2.5 µg/mL (≈ 5.64 µM) | > 100 µg/mL | 2.5 µg/mL (≈ 5.64 µM) | 10 µg/mL (≈ 22.5 µM) | > 100 µg/mL | 5 µg/mL (≈ 11.3 µM) | 2.5 µg/mL (≈ 5.64 µM) | 5 µg/mL (≈ 11.3 µM) | 1 µg/mL (≈ 2.25 µM) | 1 µg/mL (≈ 2.25 µM) | 0.05 µg/mL (≈ 0.113 µM) | MIC [7]: 2.5 µg/mL (≈ 5.64 µM); MIC [8]: 2.5 µg/mL (≈ 5.64 µM)
C/C(=C\C(=O)OCc1cc(C#N)cc(C#N)c1)CC1OCC(CC2OC2C(C)C(C)O)C(O)C1O (centres unmarked) [Example 6, 3,5-Dicyanobenzyl monate A] | 0.05 µg/mL (≈ 0.103 µM) | 0.05 µg/mL (≈ 0.103 µM) | 0.5 µg/mL (≈ 1.03 µM) | > 100 µg/mL | 5 µg/mL (≈ 10.3 µM) | 1 µg/mL (≈ 2.06 µM) | 100 µg/mL (≈ 206 µM) | > 100 µg/mL | – | 0.5 µg/mL (≈ 1.03 µM) | > 100 µg/mL | 2.5 µg/mL (≈ 5.16 µM) | 2.5 µg/mL (≈ 5.16 µM) | > 100 µg/mL | – | 5 µg/mL (≈ 10.3 µM) | 5 µg/mL (≈ 10.3 µM) | 0.1 µg/mL (≈ 0.206 µM) | 0.1 µg/mL (≈ 0.206 µM) | 0.025 µg/mL (≈ 0.0516 µM) | MIC [7]: 1 µg/mL (≈ 2.06 µM)
